The values that follow come from patent publication EP4745134A1 (Jiangsu Yahong Meditech Co., Ltd., priority 2023, dated 2025).

One experiment deals with HCT116-WT cells. The experiment can be described thus: Inhibitory activity against cell proliferation (CellTiter Glo, 6 days), HCT116-WT. Format: cell-based. The following applies: 144 h, HCT116-WT cells, 6 days, CellTiter Glo; read-out: HCT116-WT IC50. In a few lines:
(§1)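 Cells were seeded at 250 per well in McCoy's 5A with 10% FBS and left overnight at 37°C, 5% CO2. Compounds were added as 8-point, 4-fold dilutions from 10000 nM, with DMSO-only controls, for 6 days. IC50 values came from CellTiter Glo luminescence.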

The target in a further experiment is PRMT5-MTA (Homo sapiens, UniProt O14744). The experiment can be described thus: Enzymatic inhibitory activity against PRMT5-MTA (AlphaScreen). The following applies: read-out: IC50. Format: biochemical. In a few lines: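 PRMT5/[…] (1 nM) was preincubated for 30 min at room temperature with 1 µM […] and 2.5 µM SAM, then exposed to compound (10-point, 3-fold from 1000 nM) for 15 min at 23 °C. Histone H4 substrate (5 nM) was added and reacted for 45 min at 23 °C. Symmetric dimethyl-R3 H4 was detected by AlphaScreen and IC50 calculated.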
PRMT5-MTA, sequence (O14744 whole entry): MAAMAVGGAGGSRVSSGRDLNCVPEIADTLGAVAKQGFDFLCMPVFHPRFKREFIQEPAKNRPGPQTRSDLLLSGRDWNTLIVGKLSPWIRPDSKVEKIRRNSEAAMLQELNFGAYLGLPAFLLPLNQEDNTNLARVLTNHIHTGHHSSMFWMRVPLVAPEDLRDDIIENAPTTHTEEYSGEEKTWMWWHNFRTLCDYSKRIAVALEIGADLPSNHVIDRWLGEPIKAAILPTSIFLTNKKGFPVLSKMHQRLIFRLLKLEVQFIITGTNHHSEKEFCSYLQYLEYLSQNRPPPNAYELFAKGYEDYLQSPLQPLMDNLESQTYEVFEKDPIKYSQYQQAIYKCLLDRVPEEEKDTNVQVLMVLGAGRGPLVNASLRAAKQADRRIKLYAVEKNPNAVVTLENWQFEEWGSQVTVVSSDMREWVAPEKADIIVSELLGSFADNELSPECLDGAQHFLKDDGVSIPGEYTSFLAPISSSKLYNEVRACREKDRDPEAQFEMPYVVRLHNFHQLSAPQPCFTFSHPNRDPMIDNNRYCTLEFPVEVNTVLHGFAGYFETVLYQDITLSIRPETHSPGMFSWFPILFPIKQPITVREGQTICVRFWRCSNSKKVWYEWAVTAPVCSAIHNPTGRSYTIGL
PRMT5-MTA, sequence (Q9BQA1 whole entry partner): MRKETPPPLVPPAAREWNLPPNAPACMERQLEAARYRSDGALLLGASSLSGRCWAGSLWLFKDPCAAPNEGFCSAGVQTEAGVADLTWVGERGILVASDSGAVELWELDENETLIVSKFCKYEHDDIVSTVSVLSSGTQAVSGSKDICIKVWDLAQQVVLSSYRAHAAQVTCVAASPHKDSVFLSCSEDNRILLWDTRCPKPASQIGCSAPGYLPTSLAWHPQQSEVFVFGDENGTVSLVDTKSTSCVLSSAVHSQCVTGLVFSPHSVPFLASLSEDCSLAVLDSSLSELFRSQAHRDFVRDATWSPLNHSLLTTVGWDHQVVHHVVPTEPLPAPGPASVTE

The test system of the next experiment is HCT116 MTAP KO cells. Description: Inhibitory activity against cell proliferation (CellTiter Glo, 6 days), HCT116 MTAP KO. The class given is cell-based. The following applies: for IC50: Homo sapiens, HCT-116, 144 h, HCT116 MTAP KO cells, 6 days, CellTiter Glo, read-out: HCT116 MTAP KO IC50; for Selectivity HCT 116-WT/ HCT116 MTAP KO: ratio of IC50 HCT116-WT / HCT116 MTAP KO. The procedure, abridged: as §1
(ATP-based viability assays read luminescence as a measure of living cells.)

By IC50 is commonly meant the concentration at which inhibition is half-maximal. Consider `Cn1ncc2c(N)nc3cc(Cl)c(C(=O)N4CC(F)(F)CN4c4ncccc4F)cc3c21` [Example 459, (4-amino-7-chloro-1-methyl-1H-pyrazolo [4,3-c]quinolin-8-yl)(4,4-difluoro-2-(3-fluoropyridin-2-yl)pyrazolidin-1-yl)methanone], for which the values for the concentration for half-maximal inhibition (IC50) in the experiment on HCT116-WT cells, on PRMT5-MTA and with HCT116 MTAP KO cells were 408 nM, 4.7 nM and 30 nM, respectively. Besides, the “Selectivity HCT 116-WT/ HCT116 MTAP KO” value with HCT116 MTAP KO cells amounted to 13.60.
Take `Cc1cc2cc(C(=O)N(Cc3ccc(-c4scnc4CO)cn3)N(C)c3ncccn3)ccc2nc1N` [Example 236, 2-amino-N-((5-(4-(hydroxymethyl)thiazo 1-5-yl)pyridin-2-yl)methyl)-N',3-dimethyl -N'-(pyrimidin-2-yl)quinoline-6-carbohyd razide]: the IC50 in the experiment on HCT116-WT cells worked out at 1110 nM; at PRMT5-MTA, 6 nM; with HCT116 MTAP KO cells it was 26 nM. The “Selectivity HCT 116-WT/ HCT116 MTAP KO” value in the experiment with HCT116 MTAP KO cells was found to be 42.85.
The matching figures for `Cc1cc2cc(C(=O)N(Cc3ccc(Br)cn3)N(C)c3ncccc3F)ccc2nc1N` [Example 48, 2-amino-N-((5-bromopyridin-2-yl)methyl)-N'-(3-fluoropyridin-2-yl)-N',3-dimethyl quinoline-6-carbohydrazide]: 466 nM, 3.7 nM, 13 nM and 35.85.
Take `CN(c1ncccn1)N(Cc1ccc(C(F)(F)F)cn1)C(=O)c1ccc2nc(N)c3cnccc3c2c1` [Example 308, 5-amino-N'-methyl-N'-(pyrimidin-2-yl)-N-((5-(trifluoromethyl)pyridin-2-yl)methyl)ben zo[c][2,7]naphthyridine-9-carbohydrazide]: the IC50 in the experiment on HCT116-WT cells turned out to be 216 nM; on PRMT5-MTA, 1.1 nM; in the experiment with HCT116 MTAP KO cells, 11 nM. In addition, the “Selectivity HCT 116-WT/ HCT116 MTAP KO” value with HCT116 MTAP KO cells worked out at 19.64.
As to `CN(c1ncccn1)N(Cc1ccc(-c2cnn(C(F)(F)F)c2)cn1)C(=O)c1ccc2nc(N)c(CO)cc2c1` [Example 322, 2-amino-3-(hydroxymethyl)-N'-methyl-N '-(pyrimidin-2-yl)-N-((5-(1-(trifluoromethyl)-1H-pyrazol-4-yl)pyridin-2-yl)methyl) quinoline-6-carbohydrazide], the figures for the IC50 in the experiment with HCT116-WT cells, on PRMT5-MTA and with HCT116 MTAP KO cells were 4370 nM, 4.4 nM and 268 nM, respectively. For the same compound, in the experiment with HCT116 MTAP KO cells, the “Selectivity HCT 116-WT/ HCT116 MTAP KO” value stood at 16.31.
Regarding `Cc1ncc(-c2cnc(N3CC(C)CN3C(=O)c3cc4c(cc3C)nc(N)c3cnn(C)c34)c(F)c2)cn1` (centres unmarked) [Example 477, (4-amino-1,7-dimethyl-1H-pyrazolo[4,3-c]quinolin-8-yl)(2-(3-fluoro-5-(2-methylpyrimidin-5-yl)pyridin-2-yl)-4-methylpyrazolidin-1-yl)methanone], the concentration for half-maximal inhibition (IC50) is 1460 nM in the experiment on HCT116-WT cells, 4.7 nM on PRMT5-MTA and 28 nM in the experiment with HCT116 MTAP KO cells. Further, in the experiment on HCT116 MTAP KO cells, the “Selectivity HCT 116-WT/ HCT116 MTAP KO” value stood at 52.00.
Taken in the same sequence, the figures for `Cc1cc2cc(C(=O)N(Cc3ccc(-c4cscn4)cn3)N(C)c3ncccn3)ccc2nc1N` [Example 221, 2-amino-N',3-dimethyl-N'-(pyrimidin-2-yl)-N-((5-(thiazol-4-yl)pyridin-2-yl)methyl)quinoline-6-carbohydrazide] were 1870 nM, 2.3 nM, 69 nM and 27.16.
As to `CN(c1ncccn1)N(Cc1ccc(C(F)(F)F)cn1)C(=O)c1ccc2nc(N)c(CO)cc2c1` [Example 325, 2-amino-3-hydroxymethyl-N'-methyl-N'-(pyrimidin-2-yl)-N-((5-(trifluoromethyl)pyridin-2-yl)methyl)quinoline-6-carbohydrazide], the results for the IC50 with HCT116-WT cells, at PRMT5-MTA and with HCT116 MTAP KO cells were 3180 nM, 2.3 nM and 82 nM, respectively. Further, the “Selectivity HCT 116-WT/ HCT116 MTAP KO” value with HCT116 MTAP KO cells was found to be 38.72.
For the compound `CC1CN(C(=O)c2cc3c(cc2F)nc(N)c2cnn(C)c23)N(c2ncccc2F)C1` (centres unmarked) [Example 393, (4-amino-7-fluoro-1-methyl-1H-pyrazolo [4,3-c]quinolin-8-yl)(2-(3-fluoropyridin-2-yl)-4-methylpyrazolidin-1-yl)methanone], the IC50 with HCT116-WT cells was determined as 502 nM; at PRMT5-MTA, 3.4 nM; in the experiment on HCT116 MTAP KO cells it was 9.8 nM. The “Selectivity HCT 116-WT/ HCT116 MTAP KO” value in the experiment on HCT116 MTAP KO cells was found to be 51.22.
Take `[2H]C([2H])([2H])OC1CN(C(=O)c2cc3c(cc2C)nc(N)c2cnn(C)c23)N(c2ncccc2F)C1` (centres unmarked) [Example 454, (4-amino-1,7-dimethyl-1H-pyrazolo[4,3-c]quinolin-8-yl)(2-(3-fluoropyridin-2-yl)-4-(methoxy-D3)pyrazolidin-1-yl)methanone]: the 50% inhibitory concentration (IC50) in the experiment on HCT116-WT cells was 752 nM; on PRMT5-MTA, 5.9 nM; in the experiment with HCT116 MTAP KO cells it was 36 nM. For the same compound, the “Selectivity HCT 116-WT/ HCT116 MTAP KO” value with HCT116 MTAP KO cells turned out to be 20.89.
In the case of `Cc1cc2nc(N)c3cnn(C)c3c2cc1C(=O)N1CC(C)CN1c1cncc(F)c1` (centres unmarked) [Example 387, (4-amino-1,7-dimethyl-1H-pyrazolo[4,3-c]quinolin-8-yl)(2-(5-fluoropyridin-3-yl)-4-methylpyrazolidin-1-yl)methanone], the IC50 with HCT116-WT cells was found to be 2470 nM; on PRMT5-MTA, 3.7 nM; with HCT116 MTAP KO cells it was 90 nM. The “Selectivity HCT 116-WT/ HCT116 MTAP KO” value in the experiment with HCT116 MTAP KO cells is on record as 27.40.
For the compound `Cc1cc2cc(C(=O)N(Cc3ccc(-c4cnc(N5CCN(C)CC5)nc4)cn3)N(C)c3ncccn3)ccc2nc1N` [Example 147, 2-amino-N',3-dimethyl-N-((5-(2-(4-methylpiperazin-1-yl)pyrimidin-5-yl)pyridin-2-yl)methyl)-N'-(pyrimidin-2-yl)quinoline-6-carbohydrazide], the IC50 in the experiment on HCT116-WT cells came out at 1380 nM; at PRMT5-MTA it was 2.2 nM; in the experiment with HCT116 MTAP KO cells, 46 nM. Moreover, in the experiment with HCT116 MTAP KO cells, the “Selectivity HCT 116-WT/ HCT116 MTAP KO” value was determined as 29.93.
Turning to `Cc1cc2cc(C(=O)N(Cc3ccc(C(F)(F)F)cn3)N(C)c3ncc(Cl)cn3)ccc2nc1N` [Example 69, 2-amino-N'-(5-chloropyrimidin-2-yl)-N', 3-dimethyl-N-((5-(trifluoromethyl)pyridin-2-yl)methyl)quinoline-6-carbohydrazide], the IC50 in the experiment with HCT116-WT cells amounted to 3160 nM; at PRMT5-MTA it was 2.4 nM; in the experiment with HCT116 MTAP KO cells, 216 nM. The “Selectivity HCT 116-WT/ HCT116 MTAP KO” value in the experiment on HCT116 MTAP KO cells is listed as 14.63.
As to `Cc1cc2cc(C(=O)N(Cc3ccc(C(F)(F)F)cn3)N(C)c3c(F)cccc3F)ccc2nc1N` [Compound 116, 2-amino-N'-(2,6-difluorophenyl)-N',3-di methyl-N-((5-(trifluoromethyl)pyridin-2-yl)methyl)quinoline-6-carbohydrazide], the IC50 was 2950 nM with HCT116-WT cells, 4.7 nM at PRMT5-MTA and 78 nM in the experiment on HCT116 MTAP KO cells. The “Selectivity HCT 116-WT/ HCT116 MTAP KO” value in the experiment on HCT116 MTAP KO cells stood at 37.85.
For `Cc1cc2cc(C(=O)N(Cc3ccc(C(F)(F)F)cn3)Nc3ncccc3F)ccc2nc1N` [Example 56, 2-amino-N'-(3-fluoropyridin-2-yl)-3-met hyl-N-((5-(trifluoromethyl)pyridin-2-yl)methyl)quinoline-6-carbohydrazide], the results for the IC50 in the experiment with HCT116-WT cells, at PRMT5-MTA and in the experiment on HCT116 MTAP KO cells were 3330 nM, 3.5 nM and 139 nM, respectively. The “Selectivity HCT 116-WT/ HCT116 MTAP KO” value with HCT116 MTAP KO cells is given as 23.99.
Taken in the same sequence, the figures for `Cc1cc2nc(N)c3cnn(C)c3c2cc1C(=O)N1CC2(CCC2)CN1c1ncccc1F` [Example 348, (4-amino-1,7-dimethyl-1H-pyrazolo[4,3-c]quinolin-8-yl)(7-(3-fluoropyridin-2-yl)-6,7-diazaspiro[3.4]octan-6-yl)methanone] were 208 nM, 7.5 nM, 6.9 nM and 30.14.
Consider `Cc1cc2nc(N)c3cnn(C)c3c2cc1C(=O)N1CCCN1c1ncc(-c2cccnc2)cc1F` [Example 473, (4-amino-1,7-dimethyl-1H-pyrazolo[4,3-c]quinolin-8-yl)(2-(5-fluoro-[3,3'-bipyridine]-6-yl)pyrazolidin-1-yl)methanone], for which the IC50 in the experiment on HCT116-WT cells is 5100 nM; at PRMT5-MTA it was 9 nM; in the experiment with HCT116 MTAP KO cells it was 91 nM. For the same compound, in the experiment with HCT116 MTAP KO cells, the “Selectivity HCT 116-WT/ HCT116 MTAP KO” value came out at 56.09.
Turning to `Cc1cc2cc(C(=O)N(Cc3ccc(C(F)(F)F)cn3)N(C)c3nccc4occc34)ccc2nc1N` [Example 42, 2-amino-N'-(furo[3,2-c]pyridin-4-yl)-N', 3-dimethyl-N-((5-(trifluoromethyl)pyridin-2-yl)methyl)quinoline-6-carbohydrazide], the values for the IC50 in the experiment on HCT116-WT cells, at PRMT5-MTA and with HCT116 MTAP KO cells were 2650 nM, 3 nM and 49 nM, respectively. Besides, in the experiment on HCT116 MTAP KO cells, the “Selectivity HCT 116-WT/ HCT116 MTAP KO” value is listed as 54.14.
Consider `Cc1cc2cc(C(=O)N(Cc3cc4ccccc4cn3)N(C)c3ncccn3)ccc2nc1N` [Example 104, 2-amino-N-(isoquinolin-3-ylmethyl)-N',3-dimethyl-N'-(pyrimidin-2-yl)quinoline-6-carbohydrazide], for which the half-inhibitory concentration (IC50) came out at 1540 nM in the experiment on HCT116-WT cells, 3.4 nM on PRMT5-MTA and 67 nM with HCT116 MTAP KO cells. In the experiment on HCT116 MTAP KO cells, the “Selectivity HCT 116-WT/ HCT116 MTAP KO” value worked out at 22.94.
With `[2H]C([2H])([2H])n1ncc2c(N)nc3cc(C)c(C(=O)N4CC(C)CN4c4ncccc4F)cc3c21` (centres unmarked) [Example 507, (4-amino-7-methyl-1-(methyl-D3)-1H-pyrazolo[4,3-c]quinolin-8-yl)(2-(3-fluoropyridin-2-yl)-4-methylpyrazolidin-1-yl)methanone], the IC50 in the experiment with HCT116-WT cells was found to be 1680 nM; at PRMT5-MTA, 10.3 nM; in the experiment on HCT116 MTAP KO cells, 38 nM. The “Selectivity HCT 116-WT/ HCT116 MTAP KO” value in the experiment with HCT116 MTAP KO cells is given as 44.34.
